# Several values for one entry are separate records, joined by “and”; a condition that tells them apart may be missing. Identical values can stand only once. Like-named read-outs stand apart in the source and are kept apart here.
# Tests used:
# hCB1 [1] = biological target: T1, hCB1 (Homo sapiens, UniProt P21554); assay: Lance Ultra cAMP accumulation assay, CHO cells; assay type: cell-based; set-up: expressed in transfected cells; conditions: for Emax: CHO; for normalised cAMP response, concentration-response (Figure2f), replicate values: log[Compound;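 as to all read-outs here: human CB1R stably expressed in CHO cells, ligands co-incubated with forskolin at room temperature, read-out is lowering of forskolin-stimulated cAMP accumulation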
# T1 sequence (P21554 whole entry): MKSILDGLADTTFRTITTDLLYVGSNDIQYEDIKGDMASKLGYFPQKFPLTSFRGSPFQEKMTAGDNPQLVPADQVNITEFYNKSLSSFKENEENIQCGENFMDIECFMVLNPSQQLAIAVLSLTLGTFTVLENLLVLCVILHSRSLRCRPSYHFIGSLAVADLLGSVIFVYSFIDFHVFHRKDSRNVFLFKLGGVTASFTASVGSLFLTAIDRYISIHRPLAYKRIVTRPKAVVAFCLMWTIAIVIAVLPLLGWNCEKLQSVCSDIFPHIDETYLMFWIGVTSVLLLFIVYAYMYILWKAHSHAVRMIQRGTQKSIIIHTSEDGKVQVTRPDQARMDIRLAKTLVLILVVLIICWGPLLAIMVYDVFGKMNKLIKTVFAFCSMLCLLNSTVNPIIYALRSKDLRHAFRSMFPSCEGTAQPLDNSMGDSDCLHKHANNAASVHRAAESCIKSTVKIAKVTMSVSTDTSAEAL
# CB1 (rCB1) = CB1 (rCB1) (Rattus norvegicus, UniProt P20272); assay: Radioligand competition binding, [3H]-CP-55,940, rat brain membranes; conditions: for pKi [95% CI] / radioligand binding, competition curve point (normalized): rCB1; for radioligand binding, competition curve point (normalized): log[drug], replicate columns
# Sequence of CB1 (rCB1) (P20272 whole entry): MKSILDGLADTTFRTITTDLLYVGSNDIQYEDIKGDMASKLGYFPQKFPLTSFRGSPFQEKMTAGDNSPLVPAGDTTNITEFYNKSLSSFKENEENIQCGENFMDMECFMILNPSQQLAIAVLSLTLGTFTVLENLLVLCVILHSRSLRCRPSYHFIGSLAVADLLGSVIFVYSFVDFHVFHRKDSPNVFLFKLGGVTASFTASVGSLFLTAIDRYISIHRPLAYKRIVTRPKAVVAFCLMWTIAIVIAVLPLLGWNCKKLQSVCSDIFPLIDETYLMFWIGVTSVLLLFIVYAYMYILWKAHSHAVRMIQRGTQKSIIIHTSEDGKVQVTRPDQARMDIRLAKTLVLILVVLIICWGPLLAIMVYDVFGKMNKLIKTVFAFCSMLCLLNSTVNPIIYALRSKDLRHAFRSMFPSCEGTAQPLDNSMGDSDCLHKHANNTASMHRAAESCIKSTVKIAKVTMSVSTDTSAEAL
# hCB1 [2] = biological target: T1, hCB1; assay: bioSensAll ebBRET signaling profiling, hCB1; assay type: cell-based; set-up: host or cells: HEK293SL cells, transient PEI transfection; conditions: for Gi1 hCB1 response: Gi1 biosensor; for Gi1 hCB1 / GoB hCB1: single replicate values, FigS6a; for EC50: read-out: EC50 [95% CI]; for Emax: normalized to CP-55,940
# [3] = read-out: Ki [95% CI], rCB1, [3H]-CP-55,940
structure (smiles),measurement,setting,value
Cc1cc(C(=O)NC(C)(c2ccco2)c2ccco2)nn1-c1cccc(C(F)(F)F)c1 [‘4936],EC50,hCB1 [1],4.79 nM
same,Emax,hCB1 [1],65%
same,"agonism, inhibition of forskolin-stimulated cAMP","hCB1 [1]; hCB1-expressing cells, in words",agonists
same,"normalised cAMP response, concentration-response (Figure2f), replicate values",hCB1 [1]; M] -5,23.9901 and 17.3183 and 31.2071
same,"normalised cAMP response, concentration-response (Figure2f), replicate values",hCB1 [1]; M] -6,35.8451 and 34.6268 and 48.1963
same,"normalised cAMP response, concentration-response (Figure2f), replicate values",hCB1 [1]; M] -7,34.8754 and 40.2051 and 42.4315
same,"normalised cAMP response, concentration-response (Figure2f), replicate values",hCB1 [1]; M] -8,49.8775 and 50.0992 and 49.4868
same,"normalised cAMP response, concentration-response (Figure2f), replicate values",hCB1 [1]; M] -9,89.3609 and 84.5102 and 106.905
same,"normalised cAMP response, concentration-response (Figure2f), replicate values",hCB1 [1]; M] -10,90.3788 and 99.666 and 104.111
same,"normalised cAMP response, concentration-response (Figure2f), replicate values",hCB1 [1]; M] -11,85.7953 and 85.5262 and 99.9371
same,"normalised cAMP response, concentration-response (Figure2f), replicate values",hCB1 [1]; M] -12,103.02 and 108.188 and 110.316
same,Ki,CB1 (rCB1),7 nM
same,LLE (lipophilic ligand efficiency),CB1 (rCB1); LLE = pIC50 − clogP,3.2
same,LE (ligand efficiency),CB1 (rCB1); from rCB1 affinity,0.37
same,pKi [95% CI],CB1 (rCB1),8.1 [7.9 – 8.4]
same,"radioligand binding, competition curve point (normalized)",CB1 (rCB1); M = -5.643,23.3333 and 16.4729
same,"radioligand binding, competition curve point (normalized)",CB1 (rCB1); M = -6.357,15.1515 and 4.845
same,"radioligand binding, competition curve point (normalized)",CB1 (rCB1); M = -7.07,14.5455 and 12.7907
same,"radioligand binding, competition curve point (normalized)",CB1 (rCB1); M = -7.783,50 and 46.3178
same,"radioligand binding, competition curve point (normalized)",CB1 (rCB1); M = -8.496,103.182 and 83.9147
same,"radioligand binding, competition curve point (normalized)",CB1 (rCB1); M = -9.21,89.2442
same,"radioligand binding, competition curve point (normalized)",CB1 (rCB1); M = -9.923,99.0909 and 86.6279
same,"radioligand binding, competition curve point (normalized)",CB1 (rCB1); M = -10.636,105.758 and 87.9845
same,"fold less potent than CP-55,940",CB1 (rCB1); rCB1 binding,2.5 fold
same,Ki,CB1 (rCB1); [3],7.5 nM
same,fold improvement in CB1R affinity,CB1 (rCB1); vs parent hit or analog without the change,approximately 6 fold
COC(=O)[C@](C)(NC(=O)c1cc(C)n(-c2cccc(C(F)(F)F)c2)n1)c1cccs1 [‘8690],EC50,hCB1 [1],473 nM
same,Lance Ultra cAMP pEC50,hCB1 [1],6.3 [5.8 – 7.0]
same,Emax,hCB1 [1],53%
same,pKi [95% CI],CB1 (rCB1),7.1 [6.9 – 7.3]
same,Ki,CB1 (rCB1); [3],90.2 nM
same,Gi1 hCB1 response,hCB1 [2]; Log [Compound] (M) -4.63927,107.576
same,Gi1 hCB1 response,hCB1 [2]; Log [Compound] (M) -5.05788,100.593
same,Gi1 hCB1 response,hCB1 [2]; Log [Compound] (M) -5.47381,88.91
same,Gi1 hCB1 response,hCB1 [2]; Log [Compound] (M) -5.89285,68.8562
same,Gi1 hCB1 response,hCB1 [2]; Log [Compound] (M) -6.31878,81.5241
same,Gi1 hCB1 response,hCB1 [2]; Log [Compound] (M) -6.72585,77.4731
same,Gi1 hCB1 response,hCB1 [2]; Log [Compound] (M) -7.14267,64.4023
same,Gi1 hCB1 response,hCB1 [2]; Log [Compound] (M) -7.55284,52.8535
same,Gi1 hCB1 response,hCB1 [2]; Log [Compound] (M) -8,17.9832
same,Gi1 hCB1 response,hCB1 [2]; Log [Compound] (M) -8.22186,31.0987
same,Gi1 hCB1 response,hCB1 [2]; Log [Compound] (M) -8.39794,14.4917
same,Gi1 hCB1 response,hCB1 [2]; Log [Compound] (M) -8.68787,15.566
same,Gi1 hCB1 response,hCB1 [2]; Log [Compound] (M) -9.15521,3.502
same,Gi1 hCB1 response,hCB1 [2]; Log [Compound] (M) -9.61989,4.487
same,Gi1 hCB1 response,hCB1 [2]; Log [Compound] (M) -10.0969,-7.576
same,Gi1 hCB1 response,hCB1 [2]; Log [Compound] (M) -10.5529,-10.5308
same,Gi1 hCB1 response,hCB1 [2]; Log [Compound] (M) -11.0177,-2.272
same,Gi1 hCB1 response,hCB1 [2]; Log [Compound] (M) -11.4949,-1.802
same,Gi1 hCB1 response,hCB1 [2]; Log [Compound] (M) -11.9208,-1.466
same,Gi1 hCB1 response,hCB1 [2]; Log [Compound] (M) -12.3979,8.695
same,Gi1 hCB1 response,hCB1 [2]; Log [Compound] (M) -12.8861,6.367
same,Gi1 hCB1 response,"hCB1 [2]; Log [Compound] (M) -13, individual replicate values",-3.951
same,Gi1 hCB1,hCB1 [2]; Log [Compound] (M) -4.22186,95.271 and 72.3781
same,GoB hCB1,hCB1 [2]; Log [Compound] (M) -4.22186,82.2993 and 86.8881
same,Gi1 hCB1,hCB1 [2]; Log [Compound] (M) -4.63927,89.1198 and 73.8984
same,GoB hCB1,hCB1 [2]; Log [Compound] (M) -4.63927,85.86 and 78.0511
same,Gi1 hCB1,hCB1 [2]; Log [Compound] (M) -5.05788,89.7364 and 64.618
same,GoB hCB1,hCB1 [2]; Log [Compound] (M) -5.05788,82.8568 and 73.8497
same,Gi1 hCB1,hCB1 [2]; Log [Compound] (M) -5.47381,86.2831 and 71.6021
same,GoB hCB1,hCB1 [2]; Log [Compound] (M) -5.47381,95.4631 and 77.0615
same,Gi1 hCB1,hCB1 [2]; Log [Compound] (M) -5.89285,88.8731 and 77.0341
same,GoB hCB1,hCB1 [2]; Log [Compound] (M) -5.89285,89.4387 and 75.2907
same,Gi1 hCB1,hCB1 [2]; Log [Compound] (M) -6.31878,83.354 and 71.8555
same,GoB hCB1,hCB1 [2]; Log [Compound] (M) -6.31878,83.9538 and 76.1935
same,Gi1 hCB1,hCB1 [2]; Log [Compound] (M) -6.72585,79.6848 and 68.7673
same,GoB hCB1,hCB1 [2]; Log [Compound] (M) -6.72585,88.3597 and 69.9433
same,Gi1 hCB1,hCB1 [2]; Log [Compound] (M) -7.14267,72.1769 and 53.833
same,GoB hCB1,hCB1 [2]; Log [Compound] (M) -7.14267,73.7932 and 56.1409
same,Gi1 hCB1,hCB1 [2]; Log [Compound] (M) -7.55284,51.6729 and 43.6499
same,GoB hCB1,hCB1 [2]; Log [Compound] (M) -7.55284,61.8702 and 41.6614
same,Gi1 hCB1,hCB1 [2]; Log [Compound] (M) -8,32.3713 and 22.1909
same,GoB hCB1,hCB1 [2]; Log [Compound] (M) -8,32.3776 and 21.4874
same,Gi1 hCB1,hCB1 [2]; Log [Compound] (M) -8.22186,19.0514 and 17.5665
same,GoB hCB1,hCB1 [2]; Log [Compound] (M) -8.22186,16.1566 and 14.2824
same,Gi1 hCB1,hCB1 [2]; Log [Compound] (M) -8.39794,17.4789 and 12.7996
same,GoB hCB1,hCB1 [2]; Log [Compound] (M) -8.39794,19.8252 and 10.1677
same,Gi1 hCB1,hCB1 [2]; Log [Compound] (M) -8.68787,7.998 and 0.7635
same,GoB hCB1,hCB1 [2]; Log [Compound] (M) -8.68787,1.86 and 2.6849
same,Gi1 hCB1,hCB1 [2]; Log [Compound] (M) -9.15521,2.91 and 0.2884
same,GoB hCB1,hCB1 [2]; Log [Compound] (M) -9.15521,1.788 and -5.44
same,Gi1 hCB1,hCB1 [2]; Log [Compound] (M) -9.61989,1.7386 and -5.445
same,GoB hCB1,hCB1 [2]; Log [Compound] (M) -9.61989,-0.8737 and -6.308
same,Gi1 hCB1,hCB1 [2]; Log [Compound] (M) -10.0969,1.245 and -4.415
same,GoB hCB1,hCB1 [2]; Log [Compound] (M) -10.0969,-2.852 and -5.544
same,Gi1 hCB1,hCB1 [2]; Log [Compound] (M) -10.5529,0.9678 and -3.3699
same,GoB hCB1,hCB1 [2]; Log [Compound] (M) -10.5529,-2.528 and -5.649
same,Gi1 hCB1,hCB1 [2]; Log [Compound] (M) -11.0177,2.371 and -4.415
same,GoB hCB1,hCB1 [2]; Log [Compound] (M) -11.0177,-2.294 and -7.871
same,Gi1 hCB1,hCB1 [2]; Log [Compound] (M) -11.4949,-0.1731 and -5.27
same,GoB hCB1,hCB1 [2]; Log [Compound] (M) -11.4949,0.583 and -6.36
same,Gi1 hCB1,hCB1 [2]; Log [Compound] (M) -11.9208,0.6903 and -3.196
same,GoB hCB1,hCB1 [2]; Log [Compound] (M) -11.9208,1.158 and -6.864
same,Gi1 hCB1,hCB1 [2]; Log [Compound] (M) -12.3979,1.692 and -4.146
same,GoB hCB1,hCB1 [2]; Log [Compound] (M) -12.3979,3.838 and -6.76
same,Gi1 hCB1,hCB1 [2]; Log [Compound] (M) -12.8861,2.602 and -5.207
same,GoB hCB1,hCB1 [2]; Log [Compound] (M) -12.8861,-0.1004 and -5.944
same,Gi1 hCB1,hCB1 [2]; Log [Compound] (M) -13,1.677 and 3.693
same,GoB hCB1,hCB1 [2]; Log [Compound] (M) -13,-0.7478 and -0.8395
same,Gi1 hCB1,hCB1 [2]; Log [Compound] (M) cell empty,-2.293
same,GoB hCB1,hCB1 [2]; Log [Compound] (M) cell empty,-5.1625
same,pEC50 [95% CI],hCB1 [2]; hCB1 Gi1,7.72 [7.6 – 7.8]
same,pEC50 [95% CI],hCB1 [2]; hCB1 GoB,7.8 [7.7 – 7.9]
same,pEC50 [95% CI],hCB1 [2]; hCB1 Gz,7.5 [6.9 – 7.8]
same,EC50,hCB1 [2]; hCB1 GoB,18 nM
same,EC50,hCB1 [2]; hCB1 Gz,33 nM
same,Emax,"hCB1 [2]; read-out: Emax [95% CI], hCB1 Gi1",82%
same,Emax,"hCB1 [2]; read-out: Emax [95% CI], hCB1 GoB",83%
same,Emax,"hCB1 [2]; read-out: Emax [95% CI], hCB1 Gz",98%

# Reference: publication PMC11882969 (Nature Communications, 2025)
